Test results: the NIST ThermoML archive (doi:10.1021/je060271a)
± gives the expanded uncertainty stated by the source.

Details: 303.15 K, Liquid, Vibrating tube method

CCCCCC(=O)OCC(COC(=O)CCCCC)(COC(=O)CCCCC)COC(=O)CCCCC [pentaerythritol tetrahexanoate]
mass density (12760 kPa): 996.5 ± 1.2 kg/m3
mass density (12780 kPa): 996.4 ± 1.2 kg/m3
mass density (12799 kPa): 996.4 ± 1.2 kg/m3
mass density (12822 kPa): 996.5 ± 1.2 kg/m3
mass density (12861 kPa): 996.4 ± 1.2 kg/m3
mass density (12903 kPa): 996.4 ± 1.2 kg/m3
mass density (12922 kPa): 996.5 ± 1.2 kg/m3
mass density (12946 kPa): 996.6 ± 1.2 kg/m3
mass density (12965 kPa): 996.4 ± 1.2 kg/m3
mass density (12985 kPa): 996.5 ± 1.2 kg/m3
mass density (13005 kPa): 996.5 ± 1.2 kg/m3
mass density (13307 kPa): 996.6 ± 1.2 kg/m3
mass density (13327 kPa): 996.7 ± 1.2 kg/m3
mass density (13352 kPa): 996.8 ± 1.2 kg/m3
mass density (13373 kPa): 996.7 ± 1.2 kg/m3
mass density (13394 kPa): 996.7 ± 1.2 kg/m3
mass density (13419 kPa): 996.7 ± 1.2 kg/m3
mass density (13439 kPa): 996.8 ± 1.2 kg/m3
mass density (13465 kPa): 996.9 ± 1.2 kg/m3
mass density (13486 kPa): 996.8 ± 1.2 kg/m3
mass density (13507 kPa): 996.8 ± 1.2 kg/m3
mass density (13533 kPa): 996.8 ± 1.2 kg/m3
mass density (13554 kPa): 996.8 ± 1.2 kg/m3
mass density (13576 kPa): 996.7 ± 1.2 kg/m3
mass density (13598 kPa): 996.9 ± 1.2 kg/m3
mass density (13624 kPa): 996.9 ± 1.2 kg/m3
mass density (13645 kPa): 996.9 ± 1.2 kg/m3
mass density (13671 kPa): 997 ± 1.2 kg/m3
mass density (13693 kPa): 996.8 ± 1.2 kg/m3
mass density (13715 kPa): 996.9 ± 1.2 kg/m3
mass density (13737 kPa): 997 ± 1.2 kg/m3
mass density (13763 kPa): 997 ± 1.2 kg/m3
mass density (13786 kPa): 997 ± 1.2 kg/m3
mass density (13808 kPa): 997 ± 1.2 kg/m3
mass density (13835 kPa): 996.9 ± 1.2 kg/m3
mass density (13857 kPa): 997.1 ± 1.2 kg/m3
mass density (13880 kPa): 997 ± 1.2 kg/m3
mass density (13902 kPa): 997 ± 1.2 kg/m3
mass density (13929 kPa): 997 ± 1.2 kg/m3
mass density (13952 kPa): 997.1 ± 1.2 kg/m3
mass density (13975 kPa): 997.1 ± 1.2 kg/m3
mass density (14002 kPa): 997.2 ± 1.2 kg/m3
mass density (14025 kPa): 997 ± 1.2 kg/m3
mass density (14052 kPa): 997.1 ± 1.2 kg/m3
mass density (14098 kPa): 997.1 ± 1.2 kg/m3
mass density (14126 kPa): 997.1 ± 1.2 kg/m3
mass density (14149 kPa): 997.1 ± 1.2 kg/m3
mass density (14174 kPa): 997.2 ± 1.2 kg/m3
mass density (14198 kPa): 997.1 ± 1.2 kg/m3
mass density (14222 kPa): 997.2 ± 1.2 kg/m3
mass density (14250 kPa): 997.2 ± 1.2 kg/m3
mass density (14273 kPa): 997.2 ± 1.2 kg/m3
mass density (14301 kPa): 997.2 ± 1.2 kg/m3
mass density (14324 kPa): 997.3 ± 1.2 kg/m3
mass density (14348 kPa): 997.3 ± 1.2 kg/m3
mass density (14371 kPa): 997.4 ± 1.2 kg/m3
mass density (14400 kPa): 997.4 ± 1.2 kg/m3
mass density (14423 kPa): 997.3 ± 1.2 kg/m3
mass density (14447 kPa): 997.4 ± 1.2 kg/m3
mass density (14476 kPa): 997.4 ± 1.2 kg/m3
mass density (14499 kPa): 997.4 ± 1.2 kg/m3
mass density (14522 kPa): 997.3 ± 1.2 kg/m3
mass density (14545 kPa): 997.5 ± 1.2 kg/m3
mass density (14569 kPa): 997.4 ± 1.2 kg/m3
mass density (14596 kPa): 997.5 ± 1.2 kg/m3
mass density (14620 kPa): 997.5 ± 1.2 kg/m3
mass density (14643 kPa): 997.6 ± 1.2 kg/m3
mass density (14671 kPa): 997.4 ± 1.2 kg/m3
mass density (14695 kPa): 997.4 ± 1.2 kg/m3
mass density (14722 kPa): 997.4 ± 1.2 kg/m3
mass density (14746 kPa): 997.6 ± 1.2 kg/m3
mass density (14770 kPa): 997.6 ± 1.2 kg/m3
